Experimental data taken from ChEMBL document CHEMBL5096155, “Recent advance of peptide-based molecules and nonpeptidic small-molecules modulating PD-1/PD-L1 protein-protein interaction or targeting PD-L1 protein degradation” (Eur J Med Chem, 2021).
One block for each compound: values may come before it. Square brackets hold non-standard residues; d marks the D form. Peptide text beside a SMILES is read from it. * marks the point of attachment. ξ: configuration not given here. X1 = NC(CO)C(=O)NC(Cc1ccccc1)C(=O)NCCCCN*; ξE = NC(CCC(=O)O)C(=O)O

Columns and labels:
B16-F10 [1] = assay: Antitumor activity in mouse B16-F10 cells xenografted mouse lung metastasis model assessed as reduction in lung metastasis; assay type: functional; parameters: scale not given: the % may be the effect or the level left
Splenocyte [2] = assay: Rescue of cell viability in mouse PD-L1 stimulated splenocyte at 100 nM incubated for 72 hrs by CFSE proliferation assay; assay type: functional
[3] = molecular target: T1, V-type immunoglobulin domain-containing suppressor of T-cell activation (Homo sapiens, UniProt Q9H7M9); assay: Inhibition of VISTA (unknown origin)
T1 sequence (Q9H7M9 whole entry): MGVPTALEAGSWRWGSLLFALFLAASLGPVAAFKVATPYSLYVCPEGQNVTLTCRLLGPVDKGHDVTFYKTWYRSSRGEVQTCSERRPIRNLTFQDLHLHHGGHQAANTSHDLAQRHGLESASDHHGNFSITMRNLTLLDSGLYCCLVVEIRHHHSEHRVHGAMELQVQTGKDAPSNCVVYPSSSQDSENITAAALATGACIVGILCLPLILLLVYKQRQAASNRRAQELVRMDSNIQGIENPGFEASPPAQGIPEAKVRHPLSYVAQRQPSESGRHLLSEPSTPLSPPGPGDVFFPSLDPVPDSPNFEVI

[4] = molecular target: T2, Programmed cell death 1 ligand 1 (Homo sapiens, UniProt Q9NZQ7); assay: Inhibition of PD-L1 (unknown origin)
T2 sequence (Q9NZQ7 whole entry): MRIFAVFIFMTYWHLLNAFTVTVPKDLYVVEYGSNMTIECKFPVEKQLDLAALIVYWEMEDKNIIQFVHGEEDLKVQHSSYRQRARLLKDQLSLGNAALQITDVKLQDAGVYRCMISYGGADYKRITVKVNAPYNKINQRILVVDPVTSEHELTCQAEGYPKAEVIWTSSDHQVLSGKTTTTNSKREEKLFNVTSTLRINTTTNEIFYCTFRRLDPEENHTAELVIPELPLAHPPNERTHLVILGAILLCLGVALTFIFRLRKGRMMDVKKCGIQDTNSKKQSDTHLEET

[5] = Cytoprotective activity against mouse PD-1 stimulated T cell assessed as rescue of PD-1 stimulated inhibition of IFN-gamma production by ELISA; assay type: functional, cell-based
[6] = molecular target: T3, Programmed cell death protein 1/Programmed cell death 1 ligand 1 (Homo sapiens, UniProt Q15116+Q9NZQ7); assay: Inhibition of PD-1/PD-L1 interaction (unknown origin) incubated for 1 to 24 hrs by HTRF assay; assay type: protein-complex assay
T3 sequence (Q15116 whole entry): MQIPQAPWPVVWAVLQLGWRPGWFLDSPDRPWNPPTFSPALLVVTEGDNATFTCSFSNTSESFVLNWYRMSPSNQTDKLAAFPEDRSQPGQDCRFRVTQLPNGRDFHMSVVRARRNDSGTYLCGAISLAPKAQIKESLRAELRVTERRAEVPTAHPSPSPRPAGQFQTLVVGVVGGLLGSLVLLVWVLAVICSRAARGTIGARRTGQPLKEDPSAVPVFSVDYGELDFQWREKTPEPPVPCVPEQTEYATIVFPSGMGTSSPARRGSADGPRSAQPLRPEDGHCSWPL
T3 sequence (Q9NZQ7 whole entry): as the sequence (Q9NZQ7 whole entry) above

NCI-H460 = assay: Antitumor activity in human NCI-H460 cells xenografted Balb/c mouse assessed as reduction in tumor mass at 4 mg/kg,sc administrated upto 72 hrs; assay type: functional; parameters: scale not given: the % may be the effect or the level left
[7] = molecular target: T2, Programmed cell death 1 ligand 1; assay: Binding affinity to human recombinant PD-L1 by surface plasmon resonance assay
[8] = molecular target: T3, Programmed cell death protein 1/Programmed cell death 1 ligand 1; assay: Inhibition of PD-1/PD-L1 interaction (unknown origin); assay type: protein-complex assay
[9] = molecular target: T3, Programmed cell death protein 1/Programmed cell death 1 ligand 1; assay: Inhibition of PD-1/PD-L1 interaction (unknown origin) by HTRF binding assay; assay type: protein-complex assay
[10] = Cytoprotective activity against rat PMA-stimulated PBMC cells expressing PD-1 co-cultured with human HEK293 cells expressing PD-L2 assessed as rescue of cell proliferation by cell proliferation assay; assay type: functional, cell-based
[11] = Cytoprotective activity against rat PMA-stimulated PBMC cells expressing PD-1 co-cultured with human MDA-MB-231 cells expressing PD-L1 assessed as rescue of cell proliferation by cell proliferation assay; assay type: functional, cell-based
[12] = molecular target: T3, Programmed cell death protein 1/Programmed cell death 1 ligand 1; assay: Inhibition of PD-1/PD-L1 interaction (unknown origin) incubated for 15 mins by HTRF assay; assay type: protein-complex assay
CT26 = assay: Antitumor activity against mouse CT26 cells xenografted BALB/c mouse assessed as reduction in tumor growth; assay type: functional; parameters: scale not given: the % may be the effect or the level left
B16-F10 [13] = assay: Antitumor activity in mouse B16-F10 cells xenografted mouse model assessed as tumor growth inhibition at 15 mg/kg,sc; assay type: functional
[14] = molecular target: T3, Programmed cell death protein 1/Programmed cell death 1 ligand 1; assay: Inhibition of human PD-1/PD-L1 interaction by HTRF binding assay; assay type: protein-complex assay
Splenocyte [15] = assay: Cytoprotective activity against mouse splenocyte co-cultured with MDA-MB-231 cells overexpressing PD-L1 assessed as rescue of cell proliferation at 100 nM by cell proliferation assay; assay type: functional
[16] = molecular target: T3, Programmed cell death protein 1/Programmed cell death 1 ligand 1; assay: Inhibition of recombinant human PD-1/PD-L1 interaction incubated for 40 mins by HTRF binding assay; assay type: protein-complex assay

Compound: C[C@@H](O)[C@@H]1NC(=O)C(N[C@@H](CO)C(=O)O)CCC(=O)NCCCCC(C(=O)N[C@@H](CO)C(=O)N[C@@H](Cc2ccccc2)C(N)=O)NC(=O)[C@H](CO)NC1=O (some centres undefined)
Activity (B16-F10 [1]): 54%

Compound: C[C@H](O)[C@@H]1NC(=O)CCOCCOCCNC(=O)[C@H](CO)NC(=O)N[C@H](C(N)=O)C(=O)NNC1=O
Activity (Splenocyte [2]): 94%

IC50 [3]: 17 nM
Compound: C[C@H](O)[C@H](NC(=O)N[C@@H](CC(N)=O)c1nnc([C@@H](N)CO)s1)C(=O)O
IC50 [4]: 37 nM

IC50 [5]: > 400 nM
Compound: COc1cc(NS(=O)(=O)c2ccc(N)cc2)ncn1 [SULFAMONOMETHOXINE]

Compound: COc1cc(/C=C/c2cccc(-c3ccccc3)c2)cc(OC)c1CN[C@](C)(CO)C(=O)O
IC50 [6]: 48 nM

Compound: C[C@H](NC(=O)[C@H](Cc1ccc(O)cc1)NC(=O)[C@H](CCC(N)=O)NC(=O)CNC(=O)[C@@H](N)CO)C(=O)N[C@@H](CO)C(=O)N[C@@H](Cc1ccc(O)cc1)C(=O)N[C@@H](Cc1cnc[nH]1)C(=O)N[C@@H](CS)C(=O)N[C@@H](Cc1c[nH]c2ccccc12)C(=O)N[C@@H](CS)C(=O)N[C@@H](Cc1c[nH]c2ccccc12)C(=O)N[C@@H](CCCNC(=N)N)C(=O)N[C@@H](CC(=O)O)C(=O)N1CCC[C@H]1C(=O)NCC(=O)N[C@@H](CCCNC(=N)N)C(=O)N[C@@H](CO)C(=O)NCC(=O)NCC(=O)N[C@@H](CO)C(=O)N[C@@H](CCCCN)C(=O)O (H-SGQYASYHCWCWRDPGRSGGSK-OH)
Activity (NCI-H460): 56% | Kd [7]: 94 nM

Compound: Cc1c(-c2ccccc2)cccc1-c1nc2cc(CNCCO)ccc2o1
IC50 [8]: < 1000 nM

Compound: Cc1c(COc2cc(OCc3cncc(C#N)c3)c(CN[C@@H](CO)C(=O)O)cc2Cl)cccc1-c1cccc(OCCCN2CCC(O)CC2)c1
IC50 [9]: 0.48 nM

Compound: CC[C@H](C)[C@H](NC(=O)[C@H](CCC(N)=O)NC(=O)[C@H](C)NC(=O)[C@H](CCCCN)NC(=O)[C@H]1CCCN1C(=O)[C@H](C)NC(=O)[C@H](CC(C)C)NC(=O)[C@H](CCC(N)=O)NC(=O)[C@@H](NC(=O)[C@@H](NC(=O)[C@H](CCCNC(=N)N)NC(=O)[C@H](Cc1ccccc1)NC(=O)[C@H](CCCCNC(=O)[C@H](Cc1ccccc1)NC(=O)[C@H](CO)NC(=O)[C@H](CCC(=O)O)NC(=O)[C@H](CO)NC(=O)[C@@H](NC(=O)[C@H](CC(N)=O)NC(=O)[C@@H](N)CO)C(C)O)NC(=O)[C@H](Cc1ccccc1)NC(=O)[C@H](CO)NC(=O)[C@H](CCC(=O)O)NC(=O)[C@H](CO)NC(=O)[C@@H](NC(=O)[C@H](CC(N)=O)NC(=O)[C@@H](N)CO)[C@@H](C)O)C(C)C)[C@@H](C)O)C(=O)N[C@@H](CCCCN)C(=O)N[C@@H](CCC(=O)O)C(N)=O (some centres undefined)
EC50 [10]: 0.72 nM | EC50 [11]: 0.41 nM

Compound: Cc1c(COc2cc(OCc3cccc(C#N)c3)c(CN[C@@H](CO)C(=O)O)cc2Cl)cccc1-c1ccc2c(c1)OCCO2
IC50 [9]: 1.48 nM

Compound: N#Cc1c(-c2ccccc2)cccc1N1CCC(NC2CCCOC2)CC1 (centres undefined)
IC50 [8]: < 1000 nM

Compound: Cc1cc(CN[C@@H](CO)C(=O)O)c(OCc2cncc(C#N)c2)cc1OCc1cccc(-c2ccc3c(c2)OCCO3)c1C
IC50 [9]: 2.25 nM

Compound: Cc1c(/C=C/c2nc(CNC(C)(CO)C(=O)O)ccc2C(F)(F)F)cccc1-c1ccc2c(c1)OCCO2 (centres undefined)
IC50 [6]: 18 nM

Compound: CNC(=O)C[C@@H]1NC(=O)O[C@@H]([C@H](C)O)C(=O)NCCOCCOCC(=O)N[C@@H](CCO)c2noc1n2
IC50 [12]: < 10 nM

Compound: Cc1c(COc2cc(OCc3cccc(C#N)c3)c(CN[C@H](CCO)C(=O)O)cc2Cl)cccc1-c1cccc(COc2cc(OCc3cccnc3)c(CN[C@@H](CCO)C(=O)O)cc2Cl)c1
IC50 [9]: 0.04 nM

Compound: CC(O)[C@H](N)c1nnc([C@]2(NC(=O)N[C@@H](CO)C(=O)O)C[C@H](CC#N)C2)o1 (some centres undefined)
Activity (CT26): 63.7%

Compound: O=C(O)[C@H](CO)NCc1cc(Cl)c(OCc2cccc(-c3ccccc3)c2Br)cc1OCc1cccnc1
inhibition in vivo at 15 mg/kg (B16-F10 [13]): 64.1%

Compound: COc1nc(OCc2cccc(-c3cccc(COc4ccc(CNCCNC(C)=O)c(OC)n4)c3C)c2C)ccc1CNCCNC(C)=O
IC50 [14]: 125 nM

Compound: C[C@H](O)[C@H](NC(=O)N[C@@H](CC(N)=O)C(=O)NNC(=O)[C@@H](N)CO)C(=O)O
Activity (Splenocyte [2]): 68% | Activity (Splenocyte [15]): 87% | EC50 [10]: 40 nM | EC50 [11]: 30 nM

Compound: NCCCC[C@H](NC(=O)N[C@@H](CC(N)=O)C(=O)NNC(=O)[C@@H](N)CO)C(=O)O
Activity (Splenocyte [15]): 87%

Compound: C[C@H](O)[C@@H]1NC(=O)N[C@H](C(N)=O)C(=O)NNC(=O)[C@H](CO)NC(=O)CCOCCOCCNC1=O
Activity (Splenocyte [2]): 95%

Compound: C[C@@H](O)[C@H](N)c1nnc([C@H](CCC(N)=O)NC(=O)N[C@@H](CO)C(=O)O)o1
Activity (Splenocyte [2]): 92%

Compound: C[C@@H](O)[C@H](N)c1noc([C@H](Cc2ccc(O)cc2)NC(=O)N2CCC[C@H]2C(=O)O)n1
Activity (Splenocyte [2]): 99%

Compound: H-GNWDYNSQRAQLYNQ-OH
Kd [7]: 1380 nM

Compound: C[C@@H](O)[C@H](NC(=O)[C@H](CC(N)=O)NC(=O)[C@@H](N)CO)C(=O)N[C@@H](CO)C(=O)NC(CCC(=O)NCCCCNC(=O)C(Cc1ccccc1)NC(=O)C(N)CO)C(N)=O (some centres undefined) (H-SNTS[ξE](X1)-NH2)
Activity (B16-F10 [1]): 64%

Compound: Cc1c(NC(=O)c2cc(CN3CCCC[C@H]3C(=O)O)cn(C)c2=O)cccc1-c1ccccc1
IC50 [16]: < 100 nM

Compound: C[C@H](O)[C@@H]1NC(=O)NCc2nc(no2)[C@H](CO)NC(=O)COCCOCCNC1=O
IC50 [12]: < 10 nM

Compound: N#Cc1c(NC(=O)c2ccc(CNCCO)cn2)cccc1-c1ccccc1
IC50 [16]: < 10 nM
